According to patent US8957084B2, “7,8-cyclicmorphinan analogs” (Purdue Pharma L.P., priority 2012, dated 2015):

Tests used:
μ-opioid receptor [1] = molecular target: T1, μ-opioid receptor (Homo sapiens (Human), UniProt P35372); assay: μ-opioid receptor [35S]GTPγS functional assay, HEK-293 cells; assay type: biochemical; settings: for Emax: relative to DAMGO
Method: (§1) [^35S]GTPγS functional assays were conducted using freshly thawed μ-receptor membranes prepared in-house from a cell line expressing recombinant μ opioid receptor in a HEK-293, CHO or U-2 OS cell background, or purchased from a commercial source (Perkin Elmer, Shelton, Conn.; or DiscovRx, Fremont, Calif.). Assay reactions were prepared by sequentially adding the following reagents to binding buffer (100 mM NaCl, 10 mM MgCl2, 20 mM HEPES, pH 7.4) on ice (final concentrations indicated): membrane protein (0.026 mg/mL), saponin ([…]), GDP ([…]) and [^35S]GTPγS (0.20 nM; Perkin Elmer, Shelton, Conn.). The prepared membrane solution (190 μl/well) was transferred to 96-shallow well polypropylene plates containing 10 μl of 20× concentrated stock solutions of the agonist [D-Ala^2, N-methyl-Phe^4 Gly-ol^5]-enkephalin (DAMGO) prepared in dimethyl sulfoxide (DMSO). Plates were incubated for 30 min at about 25° C. with shaking. Reactions were terminated by rapid filtration onto 96-well Unifilter GF/B filter plates (Perkin Elmer, Shelton, Conn.) using a 96-well tissue harvester (Perkin Elmer, Shelton, Conn.) followed by three filtration washes with 200 μl of ice-cold wash buffer (10 mM NaH2PO4, 10 mM Na2HPO4, pH 7.4). Filter plates were subsequently dried at 50° C. for 2-3 hours. BetaScint scintillation cocktail (Perkin Elmer, Shelton, Conn.) was added (50 μl/well) and plates were counted using a Packard Top-Count for 1 min/well. Data were analyzed using the sigmoidal dose-response curve fitting functions in GraphPad PRISM v. 3.0, or an in-house function for non-linear, sigmoidal dose-response curve-fitting.
(§2) μ GTP EC50 is the concentration of a compound providing 50% of the maximal response for the compound at a μ-opioid receptor.
(§3) μ GTP Emax (%) is the maximal effect elicited by a compound relative to the effect elicited by DAMGO, a standard μ agonist. Generally, the μ GTP Emax (%) value measures the efficacy of a compound to treat or prevent pain or other Conditions.
(§4) In TABLE 2, activity response of certain Compounds of the Invention to the μ- and κ-opioid receptors was determined as described above for functional assays using HEK-293 cells.

μ-opioid receptor [2] = molecular target: T1, μ-opioid receptor; assay: μ-opioid receptor radioligand dose-displacement binding assay ([3H]-diprenorphine); settings: [3H]-diprenorphine displacement
Method: Radioligand dose-displacement binding assays for μ-opioid receptors used 0.3 nM [^3H]-diprenorphine (Perkin Elmer, Shelton, Conn.), with […] membrane protein/well in a final volume of 500 μl binding buffer (10 mM MgCl2, 1 mM EDTA, 5% DMSO, 50 mM HEPES, pH 7.4). Reactions were carried out in the absence or presence of increasing concentrations of unlabeled naloxone. All reactions were conducted in 96-deep well polypropylene plates for 2 hours at room temperature. Binding reactions were terminated by rapid filtration onto 96-well Unifilter GF/C filter plates (Perkin Elmer, Shelton, Conn.), presoaked in 0.5% polyethylenimine using a 96-well tissue harvester (Perkin Elmer, Shelton, Conn.) followed by performing three filtration washes with 500 μl of ice-cold binding buffer. Filter plates were subsequently dried at 50° C. for 2-3 hours. BetaScint scintillation cocktail (Perkin Elmer, Shelton, Conn.) was added (50 μl/well), and plates were counted using a Packard Top-Count for 1 min/well. The data were analyzed using the one-site competition curve fitting functions in GraphPad PRISM™ v. 3.0 or higher (San Diego, Calif.), or an in-house function for one-site competition curve-fitting.
(§5) In TABLE 1, binding affinity of certain Compounds of the Invention to the μ- and κ-opioid receptors was determined as described above.

κ opioid receptor [3] = molecular target: T2, κ opioid receptor (Homo sapiens (Human), UniProt P41145); assay: κ-opioid receptor [35S]GTPγS functional assay, HEK-293 cells; assay type: biochemical; settings: for Emax: relative to U69,593
Method: (§6) Membranes from HEK-293 cells, CHO or U-2 OS cells expressing the recombinant human kappa opioid receptor (κ) were prepared by lysing cells in ice cold hypotonic buffer (2.5 mM MgCl2, 50 mM HEPES, pH 7.4) (10 mL/10 cm dish) followed by homogenization with a tissue grinder/Teflon pestle. Membranes were collected by centrifugation at 30,000×g for 15 min at 4° C. and pellets were resuspended in hypotonic buffer to a final concentration of 1-3 mg/mL. Protein concentrations were determined using the BioRad protein assay reagent with bovine serum albumen as standard. Aliquots of κ receptor membranes were stored at −80° C.
(§7) Functional [^35S]GTPγS binding assays were conducted as follows. κ opioid receptor membrane solution was prepared by sequentially adding final concentrations of 0.026 μg/μl κ membrane protein (in-house), 10 μg/mL saponin, 3 μM GDP and 0.20 nM [^35S]GTPγS to binding buffer (100 mM NaCl, 10 mM MgCl2, 20 mM HEPES, pH 7.4) on ice. The prepared membrane solution (190 μl/well) was transferred to 96-shallow well polypropylene plates containing 10 μl of 20× concentrated stock solutions of agonist prepared in DMSO. Plates were incubated for 30 min at a temperature of about 25° C. with shaking. Reactions were terminated by rapid filtration onto 96-well Unifilter GF/B filter plates (Perkin Elmer, Shelton, Conn.) using a 96-well tissue harvester (Packard) and followed by three filtration washes with 200 μl ice-cold binding buffer (10 mM NaH2PO4, 10 mM Na2HPO4, pH 7.4). Filter plates were subsequently dried at 50° C. for 2-3 hours. Fifty μl/well scintillation cocktail (Perkin Elmer, Shelton, Conn.) was added and plates were counted in a Packard Top-Count for 1 min/well.
(§8) κ GTP EC50 is the concentration of a compound providing 50% of the maximal response for the compound at a κ receptor.
(§9) κ GTP Emax (%) is the maximal effect elicited by a compound relative to the effect elicited by U69,593.
as §4

[4] = molecular target: recombinant human kappa opioid receptor (κ) (Homo sapiens (Human), UniProt P41145); assay: κ-opioid receptor radioligand dose-displacement binding assay ([3H]-U69,593); settings: [3H]-U69,593 displacement
Method: as §6
Radioligand dose displacement assays used 0.4 nM [^3H]-U69,593 (GE Healthcare, Piscataway, N.J.; 40 Ci/mmole) with 15 μg membrane protein (recombinant κ opioid receptor expressed in HEK 293 cells; in-house prep) in a final volume of 200 μl binding buffer (5% DMSO, 50 mM Trizma base, pH 7.4). Non-specific binding was determined in the presence of 10 μM unlabeled naloxone or U69,593. All reactions were performed in 96-well polypropylene plates for 1 hour at a temperature of about 25° C. Binding reactions were terminated by rapid filtration onto 96-well Unifilter GF/C filter plates (Perkin Elmer, Shelton, Conn.) presoaked in 0.5% polyethylenimine (Sigma). Harvesting was performed using a 96-well tissue harvester (Perkin Elmer, Shelton, Conn.) followed by five filtration washes with 200 μl ice-cold binding buffer. Filter plates were subsequently dried at 50° C. for 1-2 hours. Fifty μl/well scintillation cocktail (Perkin Elmer, Shelton, Conn.) was added and plates were counted in a Packard Top-Count for 1 min/well.
as §5

μ-opioid receptor [5] = molecular target: T1, μ-opioid receptor; assay: μ-opioid receptor [35S]GTPγS functional assay, U-2 OS cells; assay type: biochemical; settings: for Emax: GTPγS, U-2 OS cells, relative to DAMGO
Method: as §1, §2, §3
(§10) In TABLE 3, activity response of certain Compounds of the Invention to the μ- and κ-opioid receptors was determined as described above for functional assays using U-2 OS cells.

κ opioid receptor [6] = molecular target: T2, κ opioid receptor; assay: κ-opioid receptor [35S]GTPγS functional assay, U-2 OS cells; assay type: biochemical; settings: for Emax: GTPγS, U-2 OS cells, relative to U69,593
Method: as §6, §7, §8, §9, §10

Structure (SMILES)	EC50 (μ-opioid receptor [1]) [nM]	Emax (μ-opioid receptor [1]; GTPγS, HEK-293 cells) [%]	Ki (μ-opioid receptor [2]) [nM]	EC50 (κ opioid receptor [3]) [nM]	Emax (κ opioid receptor [3]; GTPγS, HEK-293 cells) [%]	Ki [4] [nM]	EC50 (μ-opioid receptor [5]) [nM]	Emax (μ-opioid receptor [5]) [%]	EC50 (κ opioid receptor [6]) [nM]	Emax (κ opioid receptor [6]) [%]	EC50 (μ-opioid receptor [1]; GTPγS, HEK-293 cells, read-out: μ EC50) [nM]	EC50 (κ opioid receptor [3]; GTPγS, HEK-293 cells, read-out: κ EC50) [nM]
COc1ccc2c(c1)[C@]13CCN(CC4CC4)[C@H](C2)[C@@H]1C1CC1C(=O)C3 (stereo partly drawn) [Compound 1, (1bR,2R,7bS)-12-(cyclopropylmethyl)-6-methoxy-1,1b,2,3,8,9a-hexahydro-2,7b-(epiminoethano)cyclopropa[a]phenanthren-9(1aH)-one]	53.6 ± 8.94	63.6 ± 3.47	112 ± 26.9	136 ± 25.4	81 ± 2.27	8.87 ± 2.73						
C=C1C[C@@]23CCN(CC4CC4)[C@H](Cc4ccc(OC)cc42)C3C2CC12 (stereo partly drawn) [Compound 4, (2R,7bS)-12-(cyclopropylmethyl)-6-methoxy-9-methylene-1,1a,1b,2,3,8,9,9a-octahydro-2,7b-(epiminoethano)cyclopropa[a]phenanthrene]	42.2 ± 3.59	113 ± 3.38	142 ± 10.8	103 ± 36.9	106 ± 1.67	2.19 ± 0.6	83.1 ± 7.77	66.7 ± 4.81	8.95 ± 1.02	102 ± 1.53		
C=CCOC1C[C@]23CCN(CC4CC4)[C@H](Cc4ccc(OC)cc42)C3C2CC12 (stereo partly drawn) [Compound 3, (2R,7bS)-9-(allyloxy)-12-(cyclopropylmethyl)-6-methoxy-1,1a,1b,2,3,8,9,9a-octahydro-2,7b-(epiminoethano)cyclopropa[a]phenanthrene]	75.2 ± 9.24	84.3 ± 5.81	30 ± 2.76	116 ± 27.4	66.7 ± 7.88	3.04 ± 0.6	90.7 ± 17	52.7 ± 7.54	29.5 ± 4.5	105 ± 4.67		
COc1ccc2c(c1)[C@]13CCN(CC4CC4)[C@H](C2)[C@@H]1[C@H]1C2CCC(CC2)[C@H]1C(=O)C3 [Compound 5, (4aR,4bR,5R,10bS,12aR)-15-(cyclopropylmethyl)-9-methoxy-2,3,4,4a,5,6,11,12a-octahydro-1H-5,10b-(epiminoethano)-1,4-ethanochrysen-12(4bH)-one]		33 ± 4.71	242 ± 46		19.3 ± 0.88	126 ± 21.9					216 ± 16.6	1370 ± 419
COc1ccc2c(c1)[C@]13CCN(CC4CC4)[C@H](C2)[C@@H]1C1CC1C(O)C3 (stereo partly drawn) [Compound 2, (1bR,2R,7bS)-12-(cyclopropylmethyl)-6-methoxy-1,1a,1b,2,3,8,9,9a-octahydro-2,7b-(epiminoethano)cyclopropa[a]phenanthren-9-ol]	414 ± 73	54.3 ± 4.67		1120 ± 230	76.7 ± 3.18	23.3 ± 6.06						
